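48-hour exposure; five concentrations; linearly interpolated endpoints. At the TGI there is no net growth.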
How the values were obtained:
Assay in all cases: inhibition of tumour cell growth, NCI panel, 48 h
786-0 renal = test system: 786-0 renal
A498 renal = test system: A498 renal
A549 NSCLC = test system: A549 NSCLC
ACHN renal = test system: ACHN renal
BT-549 breast = test system: BT-549 breast
CAKI-1 renal = test system: CAKI-1 renal
CCRF-CEM leukemia = test system: CCRF-CEM leukemia
COLO 205 colon = test system: COLO 205 colon
DU-145 prostate = test system: DU-145 prostate
EKVX NSCLC = test system: EKVX NSCLC
HCC-2998 colon = test system: HCC-2998 colon
HCT-116 colon = test system: HCT-116 colon
HCT-15 colon = test system: HCT-15 colon
HOP-62 NSCLC = test system: HOP-62 NSCLC
HOP-92 NSCLC = test system: HOP-92 NSCLC
HS 578T breast = test system: HS 578T breast
IGROV1 ovarian = test system: IGROV1 ovarian
K-562 leukemia = test system: K-562 leukemia
KM12 colon = test system: KM12 colon
LOX IMVI melanoma = test system: LOX IMVI melanoma
M14 melanoma = test system: M14 melanoma
MALME-3M melanoma = test system: MALME-3M melanoma
MCF7 breast = test system: MCF7 breast
MDA-MB-231 breast = test system: MDA-MB-231 breast
MDA-MB-435 = test system: MDA-MB-435
MDA-N = test system: MDA-N
MOLT-4 leukemia = test system: MOLT-4 leukemia
NCI-H226 lung = test system: NCI-H226 lung
NCI-H23 lung = test system: NCI-H23 lung
NCI-H460 lung = test system: NCI-H460 lung
NCI-H522 lung = test system: NCI-H522 lung
NCI/ADR-RES ovarian = test system: NCI/ADR-RES ovarian
OVCAR-3 ovarian = test system: OVCAR-3 ovarian
OVCAR-4 ovarian = test system: OVCAR-4 ovarian
OVCAR-5 ovarian = test system: OVCAR-5 ovarian
OVCAR-8 ovarian = test system: OVCAR-8 ovarian
PC-3 prostate = test system: PC-3 prostate
RPMI-8226 leukemia = test system: RPMI-8226 leukemia
RXF 393 renal = test system: RXF 393 renal
SF-268 CNS = test system: SF-268 CNS
SF-295 CNS = test system: SF-295 CNS
SF-539 CNS = test system: SF-539 CNS
SK-MEL-2 melanoma = test system: SK-MEL-2 melanoma
SK-MEL-28 melanoma = test system: SK-MEL-28 melanoma
SK-MEL-5 melanoma = test system: SK-MEL-5 melanoma
SK-OV-3 ovarian = test system: SK-OV-3 ovarian
SN12C renal = test system: SN12C renal
SNB-19 CNS = test system: SNB-19 CNS
SNB-75 CNS = test system: SNB-75 CNS
SR leukemia = test system: SR leukemia
SW-620 colon = test system: SW-620 colon
T-47D breast = test system: T-47D breast
TK-10 renal = test system: TK-10 renal
U251 CNS = test system: U251 CNS
UACC-257 melanoma = test system: UACC-257 melanoma
UACC-62 melanoma = test system: UACC-62 melanoma
UO-31 renal = test system: UO-31 renal
HT29 colon = test system: HT29 colon

O=c1[nH]c(=O)n(C2CC(O)C(CO)O2)c2nc3cc4ccccc4cc3nc12 (stereo not given)
TGI (786-0 renal): > 100 µM | TGI (A498 renal): > 100 µM | TGI (A549 NSCLC): > 100 µM | TGI (ACHN renal): > 100 µM | TGI (BT-549 breast): > 100 µM | TGI (CAKI-1 renal): > 100 µM | TGI (CCRF-CEM leukemia): > 100 µM | TGI (COLO 205 colon): > 100 µM | TGI (DU-145 prostate): > 100 µM | TGI (EKVX NSCLC): > 100 µM | TGI (HCC-2998 colon): > 100 µM | TGI (HCT-116 colon): > 100 µM | TGI (HCT-15 colon): > 100 µM | TGI (HOP-62 NSCLC): > 100 µM | TGI (HOP-92 NSCLC): > 100 µM | TGI (HS 578T breast): > 100 µM | TGI (IGROV1 ovarian): > 100 µM | TGI (K-562 leukemia): > 100 µM | TGI (KM12 colon): > 100 µM | TGI (LOX IMVI melanoma): > 100 µM | TGI (M14 melanoma): > 100 µM | TGI (MALME-3M melanoma): > 100 µM | TGI (MCF7 breast): > 100 µM | TGI (MDA-MB-231 breast): > 100 µM | TGI (MDA-MB-435): > 100 µM | TGI (MDA-N): > 100 µM | TGI (MOLT-4 leukemia): > 100 µM | TGI (NCI-H226 lung): > 100 µM | TGI (NCI-H23 lung): > 100 µM | TGI (NCI-H460 lung): > 100 µM | TGI (NCI-H522 lung): > 100 µM | TGI (NCI/ADR-RES ovarian): > 100 µM | TGI (OVCAR-3 ovarian): > 100 µM | TGI (OVCAR-4 ovarian): > 100 µM | TGI (OVCAR-5 ovarian): > 100 µM | TGI (OVCAR-8 ovarian): > 100 µM | TGI (PC-3 prostate): > 100 µM | TGI (RPMI-8226 leukemia): > 100 µM | TGI (RXF 393 renal): > 100 µM | TGI (SF-268 CNS): > 100 µM | TGI (SF-295 CNS): > 100 µM | TGI (SF-539 CNS): > 100 µM | TGI (SK-MEL-2 melanoma): > 100 µM | TGI (SK-MEL-28 melanoma): > 100 µM | TGI (SK-MEL-5 melanoma): > 100 µM | TGI (SK-OV-3 ovarian): > 100 µM | TGI (SN12C renal): > 100 µM | TGI (SNB-19 CNS): > 100 µM | TGI (SNB-75 CNS): > 100 µM | TGI (SR leukemia): > 100 µM | TGI (SW-620 colon): > 100 µM | TGI (T-47D breast): > 100 µM | TGI (TK-10 renal): > 100 µM | TGI (U251 CNS): > 100 µM | TGI (UACC-257 melanoma): > 100 µM | TGI (UACC-62 melanoma): > 100 µM | TGI (UO-31 renal): > 100 µM

CN(Cc1cnc2c(n1)C(N)=NN(N)N2)c1ccc(C(=O)NC(CCP(=O)(O)O)C(=O)O)cc1 (stereo not given)
TGI (A498 renal): > 100 µM | TGI (A549 NSCLC): > 100 µM | TGI (ACHN renal): > 100 µM | TGI (BT-549 breast): > 89.6 µM | TGI (CAKI-1 renal): > 100 µM | TGI (CCRF-CEM leukemia): > 100 µM | TGI (COLO 205 colon): > 100 µM | TGI (DU-145 prostate): > 100 µM | TGI (EKVX NSCLC): > 100 µM | TGI (HCC-2998 colon): > 100 µM | TGI (HCT-15 colon): > 100 µM | TGI (HOP-62 NSCLC): > 100 µM | TGI (HOP-92 NSCLC): > 100 µM | TGI (HS 578T breast): > 100 µM | TGI (HT29 colon): > 38.8 µM | TGI (IGROV1 ovarian): > 100 µM | TGI (K-562 leukemia): > 100 µM | TGI (KM12 colon): > 100 µM | TGI (LOX IMVI melanoma): > 100 µM | TGI (M14 melanoma): > 100 µM | TGI (MALME-3M melanoma): > 100 µM | TGI (MCF7 breast): > 100 µM | TGI (MDA-MB-231 breast): > 100 µM | TGI (MDA-MB-435): > 100 µM | TGI (MDA-N): > 100 µM | TGI (MOLT-4 leukemia): > 100 µM | TGI (NCI-H226 lung): > 54 µM | TGI (NCI-H23 lung): > 100 µM | TGI (NCI-H460 lung): > 100 µM | TGI (NCI-H522 lung): > 100 µM | TGI (NCI/ADR-RES ovarian): > 55.8 µM | TGI (OVCAR-3 ovarian): > 100 µM | TGI (OVCAR-4 ovarian): > 100 µM | TGI (OVCAR-8 ovarian): > 58.3 µM | TGI (PC-3 prostate): > 100 µM | TGI (RPMI-8226 leukemia): > 100 µM | TGI (RXF 393 renal): 71.8 µM | TGI (SF-268 CNS): > 100 µM | TGI (SF-295 CNS): > 100 µM | TGI (SF-539 CNS): > 100 µM | TGI (SK-MEL-2 melanoma): > 100 µM | TGI (SK-MEL-28 melanoma): > 100 µM | TGI (SK-MEL-5 melanoma): > 100 µM | TGI (SK-OV-3 ovarian): > 100 µM | TGI (SN12C renal): > 100 µM | TGI (SNB-19 CNS): > 100 µM | TGI (SNB-75 CNS): > 100 µM | TGI (SR leukemia): > 100 µM | TGI (SW-620 colon): > 100 µM | TGI (T-47D breast): > 100 µM | TGI (TK-10 renal): > 100 µM | TGI (U251 CNS): > 100 µM | TGI (UACC-257 melanoma): > 100 µM | TGI (UACC-62 melanoma): > 100 µM | TGI (UO-31 renal): > 100 µM

COc1ccc2[nH]c(S(=O)(=O)N3CC(CCl)c4ccc(N)cc43)cc2c1 (stereo not given)
TGI (786-0 renal): 14.7 µM | TGI (A498 renal): 17.6 µM | TGI (A549 NSCLC): 36 µM | TGI (ACHN renal): 49.5 µM | TGI (BT-549 breast): 27.6 µM | TGI (CAKI-1 renal): 19.9 µM | TGI (CCRF-CEM leukemia): > 50.7 µM | TGI (COLO 205 colon): 53.3 µM | TGI (DU-145 prostate): > 37.4 µM | TGI (EKVX NSCLC): 52.6 µM | TGI (HCC-2998 colon): 14.9 µM | TGI (HCT-116 colon): > 31.8 µM | TGI (HCT-15 colon): 26.4 µM | TGI (HOP-62 NSCLC): 28.6 µM | TGI (HOP-92 NSCLC): 63.4 µM | TGI (HS 578T breast): 16.5 µM | TGI (HT29 colon): 4.69 µM | TGI (IGROV1 ovarian): 24.2 µM | TGI (KM12 colon): 3.86 µM | TGI (LOX IMVI melanoma): 17.7 µM | TGI (M14 melanoma): 16.6 µM | TGI (MALME-3M melanoma): 27.6 µM | TGI (MCF7 breast): > 100 µM | TGI (MDA-MB-231 breast): 26.9 µM | TGI (MDA-MB-435): 3.35 µM | TGI (MDA-N): < 0.0189 µM | TGI (MOLT-4 leukemia): 18.4 µM | TGI (NCI-H226 lung): 20.1 µM | TGI (NCI-H460 lung): 14.2 µM | TGI (NCI-H522 lung): 10.1 µM | TGI (NCI/ADR-RES ovarian): 18.6 µM | TGI (OVCAR-3 ovarian): 25.8 µM | TGI (OVCAR-4 ovarian): 35.3 µM | TGI (OVCAR-5 ovarian): 35.2 µM | TGI (OVCAR-8 ovarian): 19.4 µM | TGI (PC-3 prostate): 16.6 µM | TGI (RPMI-8226 leukemia): 22 µM | TGI (RXF 393 renal): 29.4 µM | TGI (SF-268 CNS): 14.1 µM | TGI (SF-295 CNS): 2.27 µM | TGI (SF-539 CNS): 12.7 µM | TGI (SK-MEL-28 melanoma): 68.2 µM | TGI (SK-OV-3 ovarian): 38.3 µM | TGI (SN12C renal): 16.5 µM | TGI (SNB-19 CNS): > 100 µM | TGI (SR leukemia): 16.9 µM | TGI (SW-620 colon): > 100 µM | TGI (T-47D breast): > 100 µM | TGI (TK-10 renal): > 82.3 µM | TGI (U251 CNS): > 70.5 µM | TGI (UACC-257 melanoma): 67.5 µM | TGI (UACC-62 melanoma): 25.4 µM | TGI (UO-31 renal): 4 µM

Reference: PubChem BioAssay (NCI)
